Where two headings read alike, the source gives them in different places.
Key:
[1] = Stability of ponatinib in rat plasma under storage conditions; assay type: in vitro ADME; conditions: for Stability (%, mean ± SD): n = 3
Procedure: The stability of ponatinib in rat plasma was determined under various conditions using LQC and HQC samples in triplicate. The stability tests included bench-top exposure at room temperature for 2 h, long-term storage at −20 °C for 3 weeks, three freeze-thaw cycles, and 24-h autosampler storage at 10 °C. The stability of ponatinib was determined by comparing the measured concentrations with nominal values.

[2] = In vivo pharmacokinetic study of ponatinib in rats (plasma by HPLC-FLD, non-compartmental analysis); set-up: species or system Male SD rats; conditions: male, rat; for half-life: n = 3, read-out: T1/2 (terminal half-life) (converted)
Procedure: Animal experiments were conducted following the guidelines of the Korea Research Institute of Bioscience and Biotechnology (KRIBB-AEC-20309). Male SD rats (Koatech Inc.; Pyeongtaek, Gyeonggi, Republic of Korea) were acclimated to laboratory conditions for at least one week before experimentation. Animals were permitted ad libitum access to food and water, except during the 8 h fasting period before drug administration; however, water was continuously available.
Rats were administered ponatinib, prepared in a DMAC, cremophor EL, and 20 % HPβCD) in water (10:10:80) for intravenous (IV; 4 mg/kg) and oral administration (7.5 mg/kg). Blood samples (approximately 100 μL) were collected in lithium heparin-treated tubes through the jugular vein at 5, 15, and 30 min, and 1, 3, 6, 12, 24, 36, and 48 h for the IV group (n = 3) and at 30 min and 1, 2, 4, 6, 8, 12, 24, 36, and 48 h post-dose for the oral group (n = 3). The samples were centrifuged at 13,500×g for 10 min at 4 °C. Plasma was stored at −20 °C until analysis.
Plasma ponatinib concentrations were determined using the HPLC-FLD method developed in this study. Pharmacokinetic parameters were calculated using non-compartmental analysis via WinNonlin software (Pharsight Corporation, Mountain View, CA, USA). The key parameters were the area under the plasma concentration-time curve from zero to the last quantifiable time point (AUClast) and infinity (AUCinf), both of which were calculated using the linear trapezoidal method. The terminal half-life (T1/2) was derived from the elimination constant at the terminal phase (λ), and total clearance (CL) and the steady-state volume of distribution (Vss) were calculated. The maximum plasma concentration (Cmax) and time to reach Cmax (Tmax) were obtained directly from the plasma concentration-time graph. The oral bioavailability (F) was determined by dividing the dose-normalized AUCinf value following oral administration by that following IV administration.

Stability (%, mean ± SD) ([1]; processed rat plasma, autosampler (10 °C for 24 h), HQC 800 ng/mL): 95.2 ± 11.1% | Stability (%, mean ± SD) ([1]; processed rat plasma, autosampler (10 °C for 24 h), LQC 3 ng/mL): 93.4 ± 1.3% | Stability (%, mean ± SD) ([1]; rat plasma, bench top (room temperature for 2 h), HQC 800 ng/mL): 91.5 ± 2.1% | Stability (%, mean ± SD) ([1]; rat plasma, bench top (room temperature for 2 h), LQC 3 ng/mL): 108 ± 6% | Stability (%, mean ± SD) ([1]; rat plasma, freeze-thaw (3 cycles), HQC 800 ng/mL): 92.1 ± 5.0% | Stability (%, mean ± SD) ([1]; rat plasma, freeze-thaw (3 cycles), LQC 3 ng/mL): 89.1 ± 7.0% | Stability (%, mean ± SD) ([1]; rat plasma, long term (−20 °C for 3 weeks), HQC 800 ng/mL): 96.4 ± 4.3% | Stability (%, mean ± SD) ([1]; rat plasma, long term (−20 °C for 3 weeks), LQC 3 ng/mL): 93.1 ± 7.9% | Stability, range over LQC and HQC ([1]; rat plasma, room temperature for 2 h): 91.5 % to 108 | bioavailability ([2]; SD, PO 7.5 mg/kg vs IV 4 mg/kg, dose-normalized AUCPO/AUCIV × 100, read-out: F (oral bioavailability)): 48.2 ± 3.9% | AUC(0-inf) ([2]; IV 4 mg/kg, mean ± SD, n = 3): 6.14 ± 0.75 µg·h/mL | AUC(0-t) ([2]; IV 4 mg/kg, mean ± SD, n = 3): 6.1 ± 0.73 µg·h/mL | clearance ([2]; IV 4 mg/kg, mean ± SD, n = 3, read-out: CL (total clearance) (converted)): 0.657 L/h/kg | half-life ([2]; IV 4 mg/kg, mean ± SD): 6.84 ± 0.22 h | Vd ([2]; IV 4 mg/kg, mean ± SD, n = 3, read-out: Vss (steady-state volume of distribution)): 5.39 ± 0.2 L/kg | AUC(0-inf) ([2]; PO 7.5 mg/kg, mean ± SD, n = 3): 5.52 ± 0.28 µg·h/mL | AUC(0-t) ([2]; PO 7.5 mg/kg, mean ± SD, n = 3): 5.4 ± 0.27 µg·h/mL | Cmax ([2]; PO 7.5 mg/kg, mean ± SD, n = 3): 0.308 ± 0.011 µg/mL | Tmax ([2]; PO 7.5 mg/kg, mean ± SD, n = 3): 5.34 ± 2.31 h | half-life ([2]; PO 7.5 mg/kg, mean ± SD): 8.75 ± 0.67 h
SMILES: Cc1ccc(C(=O)Nc2ccc(CN3CCN(C)CC3)c(C(F)(F)F)c2)cc1C#Cc1cnc2cccnn12 [ponatinib, Ponatinib]
